Experimental data from patent US20200368315A1, “ANTIMICROBIAL PEPTIDES AND ADMIXTURES THEREOF SHOWING ANTIMICROBIAL ACTIVITY AGAINST GRAM-NEGATIVE PATHOGENS” (priority 2017, published 2020).
≈ marks a conversion by molar mass, not a printed value. Read-outs that look alike come from different tables or passages of the source. Non-standard residues stand in square brackets, D forms with d. Residues, ends and D or L forms follow the SMILES beside them. No end group written: not given here.

Assays:
A. baumannii LMG01041 [1] = experiment: microbe, parasite or virus in culture; assay type: cell-based, Acinetobacter baumannii
Protocol: (§1) Escherichia coli, Klebsiella pneumoniae, Pseudomonas aeruginosa, Acinetobacter baumannii, Enterobacter aerogenes were grown in Luria-Bertani (LB) broth shaken (200 rpm) or on LB agar at 37° C. […] MICs tests were performed in duplicate by a liquid growth inhibition microdilution assays in sterilized polypropylene microtiter plates according to Wiegand and […] [27]. […] The suspension was diluted in a ratio of 1:100 using Mueller Hinton Broth (MHB) and the final inoculum is 5*10^5 CFU/mL. […] The antimicrobials were diluted serially by 1/2 one by one and 50 uL diluted bacterial suspension were added to each well to make the final volume to be 100 uL. Growth control was accomplished by remove 10 uL from well 11 and dilute 1000 times to plate 1/10 suspension on the solid medium. […] The number of colonies on the control agar plate should be around 50 to ensure the concentration of the inoculum and the effectiveness of the experiment. The lowest concentration of the antimicrobials that inhibits visible growth of the indicator is identified as MIC.

K. pneumoniae LMG20218 [2] = experiment: microbe, parasite or virus in culture; assay type: cell-based, Klebsiella pneumoniae
Protocol: as §1

P. aeruginosa LMG 6395 [3] = experiment: microbe, parasite or virus in culture; assay type: cell-based, Pseudomonas aeruginosa
Protocol: as §1

E. aerogenes LMG 02094 [4] = experiment: microbe, parasite or virus in culture; assay type: cell-based, Enterobacter aerogenes
Protocol: as §1

E. coli LMG15862 [5] = experiment: microbe, parasite or virus in culture; assay type: cell-based, Escherichia coli; details: for MICb (GNP concentration when used alone): L-form GNP, Table 6
Protocol: as §1

E. aerogenes LMG 02094 [6] = test system: E. aerogenes LMG 02094
Protocol: (§2) The test of synergistic effect was processed by conducting standard chequerboard broth microdilution assays. […] Row 11 are used as growth control with no peptide was included, while row 12 with MHB medium-only wells was included as a sterility control as referred before. 50 uL fresh bacterial suspension was added to well 1-11 and final volume of each well on the plate is 100 uL.
(§3) The test of synergistic effect was processed as method 1.4.
(§4) To determine whether the combination therapy is additive, synergistic or antagonistic, fractional inhibitory concentration (FIC) indices were calculated. FICI=FICa+FICb=MICac/MICa+MICbc/MICb. The MICa/MICb is the MIC of compound A/B alone. MICac is the MIC of compound A in combination with compound B and MICbc is the MIC of compound B when it was combination with compound A. […]. FICa is FIC of compound A while FICb is FIC of compound B. The FICI is interpreted as follows: synergistic, FICI≤0.5; additive, 0.5<FICI<1; indifferent, 1<FICI<2; antagonistic, FICI>2.

K. pneumoniae LMG20218 [7] = test system: K. pneumoniae LMG20218
Protocol: as §2, §3, §4

P. aeruginosa LMG 6395 [8] = test system: P. aeruginosa LMG 6395
Protocol: as §2, §3, §4

E. coli LMG15862 [9] = test system: E. coli LMG15862
Protocol: as §2, §3, §4

A. baumannii LMG01041 [10] = test system: A. baumannii LMG01041
Protocol: as §2, §3, §4

A. baumannii LMG01041 [11] = assay type: cell-based, Acinetobacter baumannii
Source text: (§5) The test of synergistic effect was processed by conducting standard chequerboard broth microdilution assays. Nisin (Drug X) was loaded two fold serially diluted from row 1 to 10 in X-axis while GNPs (Drug Y) were loaded in eight two fold serially diluted concentrations from line A to H in Y-axis (FIG. 1). The original concentrations of peptides were MICs of each. Row 11 are used as growth control with no peptide was included, while row 12 with MHB medium-only wells was included as a sterility control as referred before. 50 uL fresh bacterial suspension was added to well 1-11 and final volume of each well on the plate is 100 uL.
as §4

P. aeruginosa LMG 6395 [12] = assay type: cell-based, Pseudomonas aeruginosa
Source text: as §5, §4

E. coli LMG15862 [13] = assay type: cell-based, Escherichia coli
Source text: as §5, §4

K. pneumoniae LMG20218 [14] = assay type: cell-based, Klebsiella pneumoniae
Source text: as §5, §4

E. aerogenes LMG 02094 [15] = assay type: cell-based, Enterobacter aerogenes
Source text: as §5, §4

[16] = gene nisA (nisin A mutants); cited from earlier work
[17] = MIC of GNP in combination with vancomycin at the MICac concentration
[18] = MIC of vancomycin in combination with the GNP at the MICbc concentration
[19] = MIC of GNP when used with the MICac concentration of nisin
[20] = MIC of nisin in combination with the GNP at the MICbc concentration

In the case of `CC[C@@H](C)[C@@H](NC(=O)CN)C(=O)NCC(=O)N[C@H](CCCCN)C(=O)N[C@H](Cc1c[nH]cn1)C(=O)N[C@@H](C(=O)NCC(=O)N[C@H](CCCCN)C(=O)N[C@H](C)C(=O)N[C@H](CC(C)C)C(=O)N[C@H](CCCCN)C(=O)NCC(=O)N[C@H](CC(C)C)C(=O)N[C@H](CCCCN)C(=O)NCC(=O)N[C@H](CC(C)C)C(=O)N[C@H](CC(C)C)C(=O)N[C@H](CCCCN)C(=O)NCC(=O)N[C@H](CC(C)C)C(=O)NCC(=O)N[C@H](CCC(=O)O)C(=O)N[C@H](CS)C(=O)O)C(C)C` [GNP-D7] (H-G[dI]G[dK][dH][dV]G[dK][dA][dL][dK]G[dL][dK]G[dL][dL][dK]G[dL]G[dE][dC]-OH; N-terminus and C-terminus assumed), the “MICb (MIC of GNP alone)” value (A. baumannii LMG01041 [1]; D form GNP, A. baumannii LMG01041, Table 9) is reported as 2 µM, the MIC value (A. baumannii LMG01041 [1]; LMG01041) is reported as 2 µM (≈ 4.55 µg/mL) and the “MICb (MIC of GNP alone)” value (K. pneumoniae LMG20218 [2]; D form GNP, K. pneumoniae LMG20218, Table 9) is reported as 4 µM. For the same compound, the MIC value (K. pneumoniae LMG20218 [2]; LMG20218) was 4 µM (≈ 9.11 µg/mL), the “MICb (MIC of GNP alone)” value (P. aeruginosa LMG 6395 [3]; D form GNP, P. aeruginosa LMG 6395, Table 9) was 4 µM and the MIC value (P. aeruginosa LMG 6395 [3]; LMG 6395) was 4 µM (≈ 9.11 µg/mL). The “MICb (MIC of GNP alone)” value (E. aerogenes LMG 02094 [4]; D form GNP, E. aerogenes LMG 02094, Table 9) was 4 µM, the MIC value (E. aerogenes LMG 02094 [4]; LMG 02094) was 4 µM (≈ 9.11 µg/mL) and the “MICb (MIC of GNP alone)” value (E. coli LMG15862 [5]; D form GNP, E. coli LMG15862, Table 9) was 2 µM. The MIC value (E. coli LMG15862 [5]; LMG15862) was 2 µM (≈ 4.55 µg/mL).
In the case of AIVQRIKKWLR-NH2 [GNP8-3], the MICb (E. aerogenes LMG 02094 [6]; MIC of GNP alone) is reported as 128 µM, the MICbc (E. aerogenes LMG 02094 [6]; [17]) is reported as 16 µM and the MICac (E. aerogenes LMG 02094 [6]; [18]) is reported as 12 µM. It also gave an MICb (K. pneumoniae LMG20218 [7]; MIC of GNP alone) of 24 µM, an MICbc (K. pneumoniae LMG20218 [7]; [17]) of 3 µM and an MICac (K. pneumoniae LMG20218 [7]; [18]) of 16 µM. The MICb (P. aeruginosa LMG 6395 [8]; MIC of GNP alone) was 16 µM, the MICbc (P. aeruginosa LMG 6395 [8]; [17]) was 8 µM and the MICac (P. aeruginosa LMG 6395 [8]; [18]) was 4 µM. It also gave an MICb (E. coli LMG15862 [9]; MIC of GNP alone) of 12 µM, an MICbc (E. coli LMG15862 [9]; [17]) of 3 µM and an MICac (E. coli LMG15862 [9]; [18]) of 4 µM. It also gave an MICb (A. baumannii LMG01041 [10]; MIC of GNP alone) of 128 µM, an MICbc (A. baumannii LMG01041 [10]; [17]) of 8 µM and an MICac (A. baumannii LMG01041 [10]; [18]) of 4 µM. The MICb (A. baumannii LMG01041 [11]; MIC of GNP alone) was 128 µM, the MICbc (A. baumannii LMG01041 [11]; [19]) was 32 µM and the MICac (A. baumannii LMG01041 [11]; [20]) was 0.375 µM. For the same compound, the MICb (P. aeruginosa LMG 6395 [12]; MIC of GNP alone) was 16 µM, the MICbc (P. aeruginosa LMG 6395 [12]; [19]) was 8 µM and the MICac (P. aeruginosa LMG 6395 [12]; [20]) was 4.5 µM. It also gave an MICb (E. coli LMG15862 [13]; MIC of GNP alone) of 12 µM, an MICbc (E. coli LMG15862 [13]; [19]) of 1.5 µM and an MICac (E. coli LMG15862 [13]; [20]) of 1.5 µM. For the same compound, the MICb (K. pneumoniae LMG20218 [14]; MIC of GNP alone) was 24 µM, the MICbc (K. pneumoniae LMG20218 [14]; [19]) was 3 µM and the MICac (K. pneumoniae LMG20218 [14]; [20]) was 1.5 µM. For the same compound, the MICb (E. aerogenes LMG 02094 [15]; MIC of GNP alone) was 128 µM, the MICbc (E. aerogenes LMG 02094 [15]; [19]) was 8 µM and the MICac (E. aerogenes LMG 02094 [15]; [20]) was 4 µM.
In the case of GIGKHVGKALKGLKGLLKGLGEC [GNP-7], the “MICb (MIC of GNP alone)” value (A. baumannii LMG01041 [1]; LMG01041) is reported as 2 µM, the “MICb (MIC of GNP alone)” value (K. pneumoniae LMG20218 [2]; LMG20218) is reported as 12 µM and the “MICb (MIC of GNP alone)” value (P. aeruginosa LMG 6395 [3]; LMG 6395) is reported as 13 µM. The “MICb (MIC of GNP alone)” value (E. aerogenes LMG 02094 [4]; LMG 02094) was 8 µM and the “MICb (GNP concentration when used alone)” value (E. coli LMG15862 [5]; E. coli LMG15862) was 6 µM.
With GNNRPVYIPQPRPPHPRL [GNP-1] the “MICb (MIC of GNP alone)” value (A. baumannii LMG01041 [1]; LMG01041) was over 64 µM, the “MICb (MIC of GNP alone)” value (K. pneumoniae LMG20218 [2]; LMG20218) was 5 µM and the “MICb (MIC of GNP alone)” value (P. aeruginosa LMG 6395 [3]; LMG 6395) was over 64 µM. For the same compound, the “MICb (MIC of GNP alone)” value (E. aerogenes LMG 02094 [4]; LMG 02094) was 8 µM and the “MICb (GNP concentration when used alone)” value (E. coli LMG15862 [5]; E. coli LMG15862) was 0.5 µM.
In the case of “K12S (ITSISLCTPGCSTGALMGCNMKTATCHCSIHVSK; cysteine pairing not given here; also: lantibiotic nisin-A; UniProt P13068 24-57, looked up, variant K12S)”, the “Biological activity (relative to the wild type)” value [16] is listed as “Increased (Increased activity, >120% compared to the activity of wild type nisin A/Z)”.
In the case of “K12T (ITSISLCTPGCTTGALMGCNMKTATCHCSIHVSK; cysteine pairing not given here; also: lantibiotic nisin-A; UniProt P13068 24-57, looked up, variant K12T)”, the “Biological activity (relative to the wild type)” value [16] is listed as “Increased (Increased activity, >120% compared to the activity of wild type nisin A/Z)”.
